The values that follow are results of earlier work, collected in US20230002631A1, “WATER-WASHABLE COMPOSITIONS FOR USE IN 3D PRINTING” (BASF SE, priority 2019, published 2023).

Where two headings read alike, the source gives them in different places.

For the data set the following is noted: for Amount that dissolves in water: room temperature; for Water solubility (g/L at 20° C.): slightly water-soluble reactive diluents (B1b).

Regarding Polyethylene glycol (200) diacrylate, the Water solubility result (stated in words) is “Water soluble”.
Turning to `C=CC(=O)OCCOCCOCC` [2-(2-ethoxyethoxy)ethyl acrylate(EOEOA), 2-(2-ethoxyethoxy)ethyl acrylate], the “Amount that dissolves in water” value was 13.4 g/L.
`C=CN1CCCCCC1=O` [N-Vinyl-caprolactam (NVC), N-Vinyl-caprolactam]: the Water solubility (temperature not given) is 40 g/L.
With `C=C(C)C(=O)OCCCO` [hydroxypropyl methacrylate], the “Water solubility (g/L at 20° C.)” value (20° C.) is below 10 g/L.
On to Poly(ethylene glycol) diacrylate, for which, under “temperature not given”, the Water solubility was 21 g/L.
Turning to `C=CC(=O)OCC(C)OCC(C)OCC(C)OC(=O)C=C` (centres unmarked) [tripropylene glycol diacrylate], where the note is “20° C.”, the “Water solubility (g/L at 20° C.)” value is recorded as 4.0 g/L.
Turning to `C=Cn1ccnc1` [N-Vinyl-imidazole (VIM), N-Vinyl-imidazole], the Water solubility result (stated in words) is listed as “Fully miscible”.
On to `C=C(C)C(=O)OCCO` [hydroxyethyl methacrylate], for which the “Amount that dissolves in water” value is given as 11.8 g/L.
On to `C=CC(=O)OCCO` [hydroxyethyl acrylate], for which the Water solubility (25° C.) was 100 g/L.
Polyethylene glycol (400) diacrylate: the Water solubility entry (stated in words) is given as “Water soluble”.
For the compound `C=CC(=O)OCCCO` [hydroxypropyl acrylate], the Water solubility (25° C.) is 100 g/L.
In the case of `C=CC(=O)OCCOCCOCCOC(=O)C=C` [Triethylene glycol diacrylate (TEGDA), Triethylene glycol diacrylate], the Water solubility (temperature not given) is 18 g/L.
On to `C=C(C)C(=O)OCCOCCOCCOCCOC(=O)C(=C)C` [Tetraethylene glycol dimethacrylate], for which the Water solubility (temperature not given) is on record as 12.6 g/L.
With `C=CC(=O)OCCOC(=O)NCCCC` [2-[[(butylamino)carbonyl]oxy]ethyl acrylate], the “Water solubility (g/L at 20° C.)” value (20° C.) is 5.0 g/L.
Consider `C=C(C)C(=O)OCCOCCOCCOC(=O)C(=C)C` [triethylene glycol dimethacrylate], for which, where the note is “20° C.”, the “Water solubility (g/L at 20° C.)” value is 3.6 g/L.
For `C=CC(=O)OCC1(CC)COCOC1` [cyclic trimethylolpropane formal acrylate], the “Water solubility (g/L at 20° C.)” value (20° C.) was 9.3 g/L.
`C=CN1CCCC1=O` [N-Vinyl-pyrrolidone (NVP), N-Vinyl-pyrrolidone]: the Water solubility (20° C.) is listed as 100 g/L at 68° F. (20° C.).
